Data on 1 molecule can be found in patent US20260207570A1, “OPTIMIZED DOSING OF LERIGLITAZONE” (MINORYX THERAPEUTICS S.L., priority 2022, published 2026).

Data set [1] is described as follows: PBPK model input parameters: physicochemical.
Data set [2] in a line: PBPK model input parameters: blood and plasma binding. In kind it is in vitro ADME, human.
Data set [3] in a line: Biliary clearance in sandwich-cultured hepatocytes. In kind it is in vitro ADME. The conditions noted are these: sandwich-cultured hepatocytes.
The test system of data set [4] is sandwich-cultured hepatocytes. Kind of data set: Biliary clearance in sandwich-cultured hepatocytes. In kind it is in vitro ADME. The conditions noted are these: after scaling up.
The nature of data set [5]: Adult PBPK model (Simcyp) development, simulation and verification. On the set-up: species or system human. From the text:
A PBPK model for leriglitazone HCl was developed with the Simcyp Population-Based Simulator Version 17 release 1.
A first-order absorption model with inputs based on clinical data was used to describe the absorption kinetics of the drug. Dose-dependent ka values were estimated from phase 1 SAD data and were incorporated to account for the less than dose proportional increase in the Cmax of leriglitazone as well as the negative food effect on the Cmax (Table 2).
A global scalar of 0.7 was applied to match the estimated value. The full PBPK model was applied in all simulations of the plasma concentration-time profiles of the drug in order to recover the shape of the concentration-time profiles.
Predictions of plasma concentration-time profiles and clearance were performed in the Simcyp Simulator using the default Sim-Healthy volunteer population, whose parameter values have been described previously. Howgate, E. M., et al., Xenobiotica Fate Foreign Compd. Biol. Syst. 36, 473-497 (2006); Inoue, S. et al., Xenobiotica Fate Foreign Compd. Biol. Syst. 36, 499-513 (2006). The trial design used for simulation of the plasma concentration-time profile of a single dose of leriglitazone in fasted and fed subjects was based on the phase 1 SAD results. Concentration-time profiles, using 10 virtual trials of 6 subjects (all male) aged 21 to 50 years receiving a single oral dose of 30, 90 or 270 mg under the fasted conditions and a single oral dose of 90 or 270 mg under fed conditions were simulated over a duration of 144 hours. Visual checks of the predicted concentration-time profiles were performed and the key PK parameters (AUC, Cmax and Tmax) were compared to those observed in the phase 1 study (Table 8).
The PBPK model was verified by comparing the predicted concentration-time profiles with the observed phase 1 MAD data. The trial design used for simulation was based on multiple doses of 135 mg or 270 mg in fed healthy subjects. […]

The nature of data set [6]: Population pharmacokinetic model of studies MT-1-01, MT-2-01, MT-2-03. In kind it is in vivo, human. The text has this: MT-1-01 (healthy volunteers), MT-2-01 (adult men with adrenomyeloneuropathy (AMN), MT-2-03 (men, women≥12 years with Friedreich's Ataxia).
A total of 2140 valid plasma concentration measurements from 130 individuals were used in the analysis. Full PK profiles were available only from MT-1-01. In MT-2-03 only pre-dose (trough) concentrations were taken at multiple visits, while in MT-2-01 also sparse post-dose samples were taken. Less than 1% of all samples were below the limit of quantification.
2. Structural model-development using only data from healthy volunteers (MT-1-01) and inclusion of key structural covariates (food, body weight).
3. Re-estimation of parameters on the full analysis dataset (MT-1-01, MT-2-01, MT-2-03). Finalization of base model.
4. Stepwise automatic covariate modeling (SCM) using the base model.
NONMEM v7.5 was used for the population modelling. The RxODE package (v0.9.2) for R (v4.0.2) was used for the simulations.
Automated stepwise covariate modeling (SCM) using a forward addition/backward deletion procedure as implemented in PsN, Karlsson and Savic, C/in Pharmacol Ther 82:17-20 (2008), was applied to the base model on the complete analysis dataset. To improve the computation time of the SCM, PsN generates a linearized form of the model applying a Taylor-transformation on which then the covariate function is applied. Anderson et al., Annu Rev Pharmacol Toxicol 48:303-332 (2008). The final model from the SCM procedure was then rerun in its original, untransformed form.
The following covariates were tested in the model for their association with CL and relative bioavailability (F): • BMI • Height • Age • Ethnicity (Hispanic yes/no) • Sex

In the next data set the target is T1, CYP2C8 (Homo sapiens, UniProt P10632).
T1 sequence (P10632 1-490): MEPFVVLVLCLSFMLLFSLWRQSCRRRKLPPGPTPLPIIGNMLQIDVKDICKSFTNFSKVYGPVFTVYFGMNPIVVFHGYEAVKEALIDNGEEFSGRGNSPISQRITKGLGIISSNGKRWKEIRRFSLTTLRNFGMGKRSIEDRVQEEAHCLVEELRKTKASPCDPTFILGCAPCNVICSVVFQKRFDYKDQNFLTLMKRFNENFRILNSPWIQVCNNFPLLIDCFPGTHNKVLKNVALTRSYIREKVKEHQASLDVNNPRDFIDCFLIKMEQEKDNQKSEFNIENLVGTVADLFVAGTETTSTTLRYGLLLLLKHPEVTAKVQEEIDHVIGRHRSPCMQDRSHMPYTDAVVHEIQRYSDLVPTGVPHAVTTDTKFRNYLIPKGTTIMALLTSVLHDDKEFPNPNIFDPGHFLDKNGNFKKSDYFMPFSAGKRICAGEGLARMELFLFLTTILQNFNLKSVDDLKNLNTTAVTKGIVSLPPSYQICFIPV
Briefly: CYP2C8 contribution to clearance (fm, CLint) for the PBPK model. The settings on record: before accounting for biliary and renal clearance. The text has this: (§1) CYP2C8 and CYP3A4 were identified in vitro as the major contributing enzymes of leriglitazone with CYP2C8 mostly responsible for the formation of the main metabolite M3. Kinetic parameters of human CYP2C8 and CYP3A4 mediated metabolism of leriglitazone were studied in in vitro studies using recombinant CYP3A4 and CYP2C8 enzymes (ADMESCOPE, Finland). […] As the disappearance of leriglitazone was very slow especially at high initial concentrations, the accuracy of the fit was not as good as based on M3 formation. […] Thus, it was not possible to fit the kinetic parameters Km and Vmax.

The target in another data set is CYP3A4 (Homo sapiens, UniProt P08684). Kind of data set: CYP3A4 contribution to clearance (fm, CLint) for the PBPK model.
CYP3A4, sequence (P08684 whole entry): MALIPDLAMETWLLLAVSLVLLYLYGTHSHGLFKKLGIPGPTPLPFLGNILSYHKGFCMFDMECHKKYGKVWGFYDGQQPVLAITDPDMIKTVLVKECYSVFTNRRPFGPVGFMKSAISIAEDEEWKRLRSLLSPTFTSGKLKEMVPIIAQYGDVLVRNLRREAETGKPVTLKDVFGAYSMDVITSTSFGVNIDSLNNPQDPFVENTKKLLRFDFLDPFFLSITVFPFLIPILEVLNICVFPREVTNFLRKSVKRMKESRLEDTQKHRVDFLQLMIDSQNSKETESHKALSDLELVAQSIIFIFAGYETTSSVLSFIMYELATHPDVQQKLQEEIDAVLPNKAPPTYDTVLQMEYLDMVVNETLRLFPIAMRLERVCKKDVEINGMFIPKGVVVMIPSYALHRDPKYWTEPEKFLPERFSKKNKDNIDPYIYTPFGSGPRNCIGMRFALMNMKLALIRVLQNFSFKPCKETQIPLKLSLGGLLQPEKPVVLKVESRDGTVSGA
Source text: as §1

Where [7] appears, read: before accounting for biliary and renal clearance.

Several values for one entry are separate records, joined by “and”; a condition that tells them apart may be missing. Identical values can stand only once.

As usually defined, the logP is a log measure of how a compound divides between an organic and an aqueous phase. Lower therefore signals a more hydrophilic compound. By pKa is commonly meant the pH at which an ionisable group is half protonated. Read a low pKa as a group that gives up its proton readily. For orientation: fraction unbound means the share of the substance not bound to proteins or other matrix. `CC(O)c1ccc(CCOc2ccc(CC3SC(=O)NC3=O)cc2)nc1` (stereo not shown) [Leriglitazone, 5-[[4-[2-[5-(1-hydroxyethyl)pyridin-2-yl]ethoxy]phenyl]methyl]-1,3-thiazolidine-2,4-dione]: in data set [1], the Compound type entry was “Diprotic Base” and the logP worked out at 2.47. In data set [1] (two values), this molecule returned a pKa of 4.97. In data set [2], the “B:P” value is reported as 0.73 and the fugut is listed as 1. Moreover, in data set [2] (human, plasma), the fraction unbound came to 0.04. Also, in data set [3], the hepatocyte CLint is 0.358 µL/min/1e6 cells and the microsomal CLint turned out to be 0.5 µL/min/mg. Besides, the “biliary clearance as fraction of total clearance (feBIL)” value in data set [4] is recorded as 19.5%. In data set [5] (PBPK model), the “renal clearance fraction (fe)” value was 5%. For the same molecule, the “CLint, additional” value in data set [5] (PBPK model input) is 0.281 µL/min/mg. In data set [5] (setting [7]), the “share of metabolism, undefined metabolism” value is listed as 6%. Moreover, in data set [6] (popPK covariate sex), the “lower CL in women” value worked out at 14.7%. Also, in data set [6] (popPK estimate), the “reduction of absorption rate when taken with food” value is on record as 82.9%; the “reduction of bioavailability by food” value is 4.8% and < 5%. Besides, in data set [6] (taken without food, popPK estimate), the “typical rate of absorption” value is 5.2 h⁻¹. The “share of metabolism, CYP2C8” value at CYP2C8 turned out to be 63.7%. For the same molecule, the “CLint, CYP3A4” value at CYP3A4 (PBPK model input, calculated from estimated fm and mean CL/F) is 0.0097 µL/min/pmol. The “share of metabolism, CYP3A4” value on CYP3A4 (setting [7]) was determined as 30%.
